Assay results reported in paper PMC6733655 (Biochemical pharmacology, 2019).
Several values for one entry are separate records, joined by “and”; a condition that tells them apart may be missing. Equal values may be shown once. Entries after “also recorded” stand apart in the source; their conditions may differ. Read-outs that look alike come from different tables or passages of the source.

Assays:
[1] = cited from earlier work
[2] = In situ single-pass jejunal perfusion of gemcitabine; format: in vivo, C57BL/6 mice; conditions: for Papp at 90 min, 100 μM: pH 6, effective permeability (Peff)
[3] = system: nucleoside transporters (CNT1, CNT3, ENT1, ENT2); assay: Inhibition; format: in vivo, C57BL/6 mice
ENT1 and ENT2 = format: in vivo, C57BL/6 mice; conditions: 5 μM [14C]-gemcitabine, 90 min perfusion, 2 mM dilazep
[4] = 100 μM gemcitabine, female BALB/c mice, corrected for cytosine; cited from earlier work
hCNT1 = conditions: read-out: Km for gemcitabine transport; Xenopus laevis oocytes; cited from earlier work
[5] = mice, cited from earlier work
hENT2 = conditions: read-out: Km for gemcitabine transport; Xenopus laevis oocytes; cited from earlier work
hCNT3 = conditions: read-out: Km for gemcitabine transport; Xenopus laevis oocytes; cited from earlier work
[6] = In situ single-pass jejunal perfusion of gemcitabine; format: in vivo, BALB/c mice; conditions: female, BALB/c, mouse, other: in situ single-pass jejunal perfusion, pH 6
hENT1 = conditions: read-out: Km for gemcitabine transport; Xenopus laevis oocytes; cited from earlier work
[7] = 5 μM gemcitabine co-perfused with 2 mM inhibitor, sodium-containing buffer
[8] = from intrinsic clearance Vmax/Km, linear conditions
[9] = jejunal flux, 0.5 μM to 2 mM, fit to two Michaelis-Menten terms

Q: Which “in situ jejunal permeability (Peff)” value [1] does the source give for `NCC(=O)CCC(=O)O` [5-aminolevulinic acid] here?
A: 0.00019 cm/s

Q: Which “cytosine in outlet samples” value ([2]; perfusion of 100 μM gemcitabine, C57BL/6 and BALB/c mice) does the source give for `Nc1cc[nH]c(=O)n1` [Cytosine, cytosine] here?
A: absent

Q: With `CC1=C(C(=O)O)N2C(=O)[C@@H](NC(=O)[C@H](N)c3ccc(O)cc3)[C@H]2SC1` [cefadroxil] as the compound, how does the “in situ jejunal permeability (Peff)” value [1] read?
A: 0.6-0.8 × 10^−4 cm/s

Q: Which results are given for `COc1cc(C(=O)OCCCN2CCCN(CCCOC(=O)c3cc(OC)c(OC)c(OC)c3)CC2)cc(OC)c1OC` [dilazep]?
A: reduction of jejunal permeability of gemcitabine [3, 7]: about 50%; residual permeability of gemcitabine [3, 7]: 50.2%; effect on total gemcitabine radioactivity in intestinal (jejunal) tissue (ENT1 and ENT2): not altered; also recorded: no change; total gemcitabine radioactivity in portal venous plasma, % control (ENT1 and ENT2): 32.5%

Q: What does the source list for `Nc1ccn([C@@H]2O[C@H](CO)[C@@H](O)C2(F)F)c(=O)n1` [gemcitabine, 2′,2′-difluoro-2′-deoxycytidine]?
A: Peff [4]: 20 nm/s; Km (hCNT1): ~25 µM; residual permeability of gemcitabine ([3]; 5 μM gemcitabine in sodium-free buffer (inhibits CNT1 and CNT3)): 31.7%; jejunal uptake mediated by nucleoside transporters ([3]; C57BL/6 mice): ~ 95%; effective permeability (Peff) ([2]; 100 μM gemcitabine, jejunum, C57BL/6 mice, analyzed by UPLC): 1100 nm/s; Papp at 90 min, 100 μM ([2]; both, C57BL/6, mouse, other: in situ single-pass jejunal perfusion, 100 μM [14C]-gemcitabine, jejunum, C57BL/6 mice, analyzed by radioactivity): 1050 nm/s; Papp at 90 min, 100 μM ([2]; both, C57BL/6, mouse, other: in situ single-pass jejunal perfusion, 100 μM gemcitabine, jejunum, C57BL/6 mice, analyzed by UPLC): 1140 nm/s; Papp at 90 min, 5 μM ([2]; both, C57BL/6, mouse, other: in situ single-pass jejunal perfusion, pH 6, in situ jejunal permeability, 5 μM gemcitabine, C57BL/6 mice): 1500 to 1900 nm/s; predicted contribution of the high-affinity transport system to uptake [2, 8]: 72%; predicted contribution of the low-affinity transport system to uptake [2, 8]: 28%; Vmax,1 (high-affinity, low-capacity transport system) [2, 9]: 3.6 pmol/cm^2/s and 3.6 ± 2.1 pmol/cm^2/s; Vmax,2 (low-affinity, high-capacity transport system) [2, 9]: 35.9 pmol/cm^2/s and 35.9 ± 5.5 pmol/cm^2/s; Km ([2]; read-out: Km,1 (high-affinity, low-capacity transport system), jejunal flux, 0.5 μM to 2 mM, fit to two Michaelis-Menten terms): 27.4 ± 13.9 µM; Km ([2]; read-out: Km,2 (low-affinity, high-capacity transport system), jejunal flux, 0.5 μM to 2 mM, fit to two Michaelis-Menten terms): 700 ± 330 µM; oral bioavailability ([5]; gemcitabine alone): 10%; oral bioavailability ([5]; with tetrahydrouridine (cytidine deaminase inhibitor)): 40%; Km (hENT2): ~750 µM; Km (hCNT3): ~60 µM; Papp at 90 min, 100 μM [6]: 1090 ± 130 nm/s; Km (hENT1): ~160 µM

Q: Which “reduction of jejunal permeability of gemcitabine” value [3, 7] does the source give for `Cc1cn([C@H]2C[C@H](O)[C@@H](CO)O2)c(=O)[nH]c1=O` [thymidine] here?
A: about 95%

Q: What about the “residual permeability of gemcitabine” value [3, 7] of the same compound?
A: 4.6%

Q: With `CC(C)[C@H](N)C(=O)OCCOCn1cnc2c(=O)[nH]c(N)nc21` [valacyclovir] as the compound, how does the “in situ jejunal permeability (Peff)” value [1] read?
A: 9e-05 cm/s

Q: Which “in situ jejunal permeability (Peff)” value ([1]; mouse) does the source give for glycylsarcosine here?
A: 0.00017 cm/s
